Measured values as given in patent US20060194883A1, “Mmp expression inhibitor” (EISAI CO., LTD, priority 2003, published 2006).

Experiments:
MMP-3 [1] = assay: Western blot of MMP protein expression in hepatic cancer cells; assay type: cell-based; conditions: hepatic cancer cells (HepG2, Hep3B, Huh7)
Procedure: (§1) Testing was performed by Western blot to investigate MMP expression. In this test protein expressions of MMP-1 and MMP-3 were investigated when menatetrenone was added to various hepatic cancer cells (HepG2, Hep3B, Huh7).

MMP-1 [2] = assay: as above; assay type: cell-based; conditions: hepatic cancer cells (HepG2, Hep3B, Huh7)
Procedure: as §1

[3] = cited from earlier work
β1 integrin = assay: RT-PCR of invasion-related factors in hepatic cancer cells; assay type: cell-based; conditions: hepatic cancer cells (HepG2, Hep3B, Huh7)
Procedure: (§2) Test was performed by RT-PCR to investigate MMP expression. This test was to investigate expression of various MMPs (MMP-1, MMP-2, MMP-3, MMP-7, MMP-9 and MMP-14 (MT1-MMP)) and of transcription factor Ets-1 that affect MMP expression and the extracellular matrix receptor β1 integrin when menatetrenone was added to various hepatic cancer cells (HepG2, Hep3B, Huh7).

MMP-3 [4] = assay: as above; assay type: cell-based; conditions: hepatic cancer cells (HepG2, Hep3B, Huh7)
Procedure: as §2

[5] = test system: transcription factor Ets-1; assay: as above; assay type: cell-based; conditions: hepatic cancer cells (HepG2, Hep3B, Huh7)
Procedure: as §2

MMP-7 = assay: as above; assay type: cell-based; conditions: hepatic cancer cells (HepG2, Hep3B, Huh7)
Procedure: as §2

MMP-1 [6] = assay: as above; assay type: cell-based; conditions: hepatic cancer cells (HepG2, Hep3B, Huh7)
Procedure: as §2

GAPDH = assay: as above; assay type: cell-based; conditions: hepatic cancer cells (HepG2, Hep3B, Huh7)
Procedure: as §2

MMP-14 (MT1-MMP) = assay: as above; assay type: cell-based; conditions: hepatic cancer cells (HepG2, Hep3B, Huh7)
Procedure: as §2

[7] = cited from earlier work; remark: listed apart in the source
p27 = assay: CDK inhibitor expression by RT-PCR and Western blot in hepatic cancer cells; assay type: cell-based; conditions: 10^−6 to 10^−4 M
Procedure: (§3) To investigate the mechanism of inhibition of cell proliferation, genes involved in promoting the cell cycle were focused on, and changes caused by addition of menatetrenone in the amount of expression of CDK inhibitors p21, p27 and p16 which inhibit cyclin dependent kinase (CDK), an enzyme which promotes the cell cycle, were analyzed by the RT-PCR and Western blot methods. In this test, menatetrenone was added at concentrations of 0 M, 10^−6 M, 10^−5 M and 10^−4 M to HepG2, Huh7, Hep3B and HLE hepatic cancer cell lines, RNA was collected after 48 hours, and 1 μg of total RNA was subjected to RT-PCR to investigate expression of p21, p27 and p16. RT-PCR was performed on GAPDH (glyceraldehyde 3-phosphate dehydrogenase) as a control. In this test, menatetrenone was added at concentrations of 0 M, 10^−6 M, 10^−5 M and 10^−4 M to HepG2, Huh7, Hep3B and HLE hepatic cancer cell lines, proteins were extracted from the various cells, subjected to SDS-PAGE electrophoresis, blotted on PVP membranes and then incubated with p21 and p27 antibodies, and p21 and p27 protein expression was investigated by ECL.

p21 = assay: as above; assay type: cell-based; conditions: 10^−6 to 10^−4 M
Procedure: as §3

AP-1 = assay: gel shift assay of transcription factor binding activity; assay type: cell-based; conditions: HepG2 nuclear proteins after 24 hours; 32P-labeled DNA probe
Procedure: (§4) MMP have binding sites for transcription factors AP-1, Ets-1, Tcf/Lef and the like at common to their promoter regions and which are known to regulate MMP expression. Gel shift assay was performed to investigate whether the binding activity of transcription factors AP-1 and Tcf/Lef, which regulate MMP expression, is affected by addition of menatetrenone. In this test menatetrenone was added to HepG2 hepatic cancer cells, nuclear proteins were extracted after 24 hours and reacted with double-stranded DNA having binding sites for AP-1 and Tcf/Lef labeled with ^32P, and gel shift assay was performed. […] Reduction and shifting of the band was also seen with anti-c-fos antibodies (“S” in the Figure).

Tcf/Lef = assay: as above; assay type: cell-based; conditions: HepG2 nuclear proteins after 24 hours; 32P-labeled DNA probe
Procedure: as §4

MMP-7 promoter = assay: MMP gene promoter activity test (luciferase reporter); assay type: cell-based; conditions: Huh7 cells, 48 hours
Procedure: (§5) Next, promoter reporter genes for MMP-1, MMP-3 and MMP-7 were introduced into Huh7 hepatic cancer cells, and the effect of menatetrenone on the activity of these MMP promoters was investigated. The MMP-1, MMP-3 and MMP-7 promoter-luciferase reporter plasmids used were prepared by replacing the reporter gene part of the MMP promoter-CAT reporter plasmid reported in Ozaki I, Mizuta T, Zhang H, Yoshimura T, Kawazoe S, Eguchi Y, Yasutake T, Hisatomi A, Sakai T and Yamamoto K, “Induction of multiple matrix metalloproteinase genes in human hepatocellular carcinoma by hepatocyte growth factor via a transcription factor Ets-1,” Hepatol. Res. 27, 288-300. The various MMP-luciferase plasmids were introduced into Huh7 hepatic cancer cells using lipofectamine, menatetrenone was added at various concentrations, and after 48 hours the cells were collected and luciferase activity measured to investigate the effects of menatetrenone on MMP-1, MMP-3 and MMP-7 gene promoter activity.

MMP-1 promoter = assay: as above; assay type: cell-based; conditions: Huh7 cells, 48 hours
Procedure: as §5

MMP-3 promoter = assay: as above; assay type: cell-based; conditions: Huh7 cells, 48 hours
Procedure: as §5

[8] = test system: Huh7 hepatic cancer cells; assay: cell cycle analysis by flow cytometry (FACS); assay type: cell-based; conditions: 10^−6 to 10^−4 M, 48 hours
Procedure: (§6) To investigate the effects of menatetrenone on the cell cycles of cancer cells, distributions according to DNA amount in hepatic cancer cells to which menatetrenone had been added were analyzed by flow cytometry (FACS). In this test, menatetrenone was added at concentrations of 0 M, 10^−6 M, 10^−5 M and 10^−4 m to HepG2, Huh7, Hep3B and HLE hepatic cancer cells, and changes in the cell cycles were observed by FACS 48 hours later.

HLE hepatic cancer cells = assay: cell cycle analysis by flow cytometry (FACS); assay type: cell-based; conditions: 10^−6 to 10^−4 M, 48 hours
Procedure: as §6

[9] = test system: HepG2 hepatic cancer cells; assay: cell cycle analysis by flow cytometry (FACS); assay type: cell-based; conditions: 10^−6 to 10^−4 M, 48 hours
Procedure: as §6

[10] = test system: Hep3B hepatic cancer cells; assay: cell cycle analysis by flow cytometry (FACS); assay type: cell-based; conditions: 10^−6 to 10^−4 M, 48 hours
Procedure: as §6

In the case of CC(C)=CCC/C(C)=C/CC/C(C)=C/CC/C(C)=C/CC1=C(C)C(=O)c2ccccc2C1=O [menatetrenone, 2-methyl-3-tetraprenyl-1,4-naphthoquinone], the “protein expression of MMP-3” value (MMP-3 [1]) is given as “inhibited”, the “protein expression of MMP-1” value (MMP-1 [2]) is given as “inhibited” and the stability to light [3] is given as “easily decomposed by light”. For the same compound, the “expression of β1 integrin mRNA” value (β1 integrin) was “no changes”, the “expression of mRNA of MMP-3” value (MMP-3 [4]) was “dose-dependently inhibited” and the “expression of the transcription factor Ets-1” value [5] was “dose-dependently inhibited”. For the same compound, the “expression of mRNA of MMP-7” value (MMP-7) was “dose-dependently inhibited”, the “expression of mRNA of MMP-1” value (MMP-1 [6]) was “dose-dependently inhibited” and the “expression of GAPDH mRNA” value (GAPDH) was “no changes”. For the same compound, the “expression of mRNA of MMP-14” value (MMP-14 (MT1-MMP)) was “dose-dependently inhibited”, the solubility in water [7] was “dissolves very little” and the p27 expression (p27; Hep3B cells) was “no change”. The “p27 mRNA expression” value (p27; HepG2 cells, 48 hours) was “increases”, the p27 expression (p27; Huh7 cells) was “no changes” and the p21 expression (p21; Hep3B cells) was “slight increase”. The “p21 mRNA expression” value (p21; HepG2 cells, 48 hours) was “increases”, the p21 expression (p21; Huh7 cells) was “no changes” and the “binding activity of AP-1” value (AP-1) was “dose-dependently inhibited”. The “binding activity of Tcf/Lef” value (Tcf/Lef) was “did not affect”, the MMP-7 promoter activity (MMP-7 promoter) was “dose-dependently inhibited” and the “decrease of MMP-7 promoter activity” value (MMP-7 promoter) was about 50%. For the same compound, the MMP-1 promoter activity (MMP-1 promoter) was “dose-dependently inhibited”, the “decrease of MMP-1 promoter activity” value (MMP-1 promoter) was about 50% and the MMP-3 promoter activity (MMP-3 promoter) was “dose-dependently inhibited”. The G2-phase cells [8] was “decreased”, the “proportion of G1-phase cells” value [8] was “increased dose-dependently” and the G2-phase cells (HLE hepatic cancer cells) was “decreased”. For the same compound, the “proportion of G1-phase cells” value (HLE hepatic cancer cells) was “increased dose-dependently”, the G2-phase cells [9] was “decreased” and the “proportion of G1-phase cells” value [9] was “increased dose-dependently”. For the same compound, the G2-phase cells [10] was “decreased” and the “proportion of G1-phase cells” value [10] was “increased dose-dependently”.
